“And” between values parts separate entries of the source, which are not always exact repeats. Equal entries are not always repeated. The source made the active and inactive calls.
Legend:
[1] = inhibitors of non-replicating M. tuberculosis, dose response, luciferase, dry powder (AID 651619); type: functional; conditions: Mycobacterium tuberculosis
[2] = inhibitors of non-replicating M. tuberculosis, dose response, luciferase, dry powder (AID 651620); type: functional; conditions: Mycobacterium tuberculosis
[3] = blockers of HIV-1 envelope-mediated cell-cell fusion – cherry-pick, dose response (AID 652057); type: functional, cell-based
[4] = blockers of HIV-1 ZM109 envelope-driven cell-cell fusion – HeLa effector, CEM target cells, luciferase, cherry-pick, dose response (AID 652058); type: functional, cell-based;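 also: luciferase signal from HIV-1 Env mediated cell-cell fusion of effector and target cells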
[5] = off-target signal loss in HeLa-CEM21 co-culture – HeLa F-luc CTL cells, cherry-picked, counter-screen for HIV-1 Env fusion inhibitor project, dose response (AID 652040); type: functional, cell-based;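 also: potency for signal decrease marking cytotoxic or nonspecific inhibition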
[6] = HIV-1 AD8 envelope cell-cell fusion blockers – cherry-pick, dose response (AID 652062); type: functional, cell-based;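 also: luciferase signal from cell-cell fusion driven by HIV-1 clade B AD8 Env; potency is for inhibitors of fusion seen as a drop in luminescence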
[7] = inhibition of Env-driven cell fusion – HIV entry, plate reader, dry powder, dose response (AID 687023); type: functional, cell-based
[8] = viability loss in CEM21 cells – cell-based, plate reader, dry powder, cytotoxicity control, dose response (AID 687026); type: functional
[9] = molecular target: NAD-dependent protein deacylase sirtuin-5, mitochondrial (Homo sapiens, UniProt Q9NXA8); experiment: sirtuin-5 deacylation blockers, concentration series – biochemical, fluorescence imaging, cherry-pick, set 5, dose response (AID 720591);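 also: desuccinylation of succinyl peptide AMC substrate read as fluorescence after trypsin release; potency of inhibitors that lower fluorescence and may act on trypsin instead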
[10] = molecular target: Matrix metalloproteinase-14 (Homo sapiens, UniProt P50281); experiment: Dose Response confirmation of uHTS hits for a small molecule inhibitors of MT1-MMP activation in a fluorescence assay set 1.; type: functional
[11] = human cervical cancer cell viability loss – 24 h, plate reader, dry powder, cytotoxicity control, dose response (AID 686928); type: functional, cell-based; conditions: HeLa
[12] = molecular target: T1, Methionyl-tRNA synthetase, putative (Trypanosoma brucei brucei, UniProt Q38C91); type: functional, Trypanosoma brucei brucei strain 927/4 GUTat10.1
[13] = Counterscreen for inhibitors of Trypanosoma brucei methionyl tRNA synthetase (MetRS): Luminescence-based cell-based high throughput dose response assay to identify compounds that are cytotoxic to Jurkat human T lymphocyte cells.; type: functional
[14] = molecular target: T1, Methionyl-tRNA synthetase, putative; type: functional, Trypanosoma brucei brucei strain 927/4 GUTat10.1; remark: listed apart in the source
[15] = molecular target: Long-chain-fatty-acid--AMP ligase FadD28 (Mycobacterium tuberculosis, UniProt P9WQ59); experiment: Fluorescence polarization aasay to screen for inhibitors that compete for the binding of FadD28 to a bisubstrate Measured in Biochemical System Using Plate Reader - 2147-01_Inhibitor_Dose_CherryPick_Activity.; type: functional, Mycobacterium tuberculosis H37Rv
[16] = viability loss in HEK293T cells – cell-based, cherry-picks, cytotoxicity control for HIV Vif inhibitor project, dose response (AID 652208); type: functional
BHK-21 = experiment: viability loss in BHK-21 cells – cell-based, plate reader, cherry-pick samples, cytotoxicity control, dose response (AID 687030); type: functional; conditions: Mesocricetus auratus
A549 = experiment: viability loss in A549 cells – cell-based, plate reader, cherry-pick samples, cytotoxicity control, dose response (AID 687028); type: functional; conditions: Homo sapiens
[17] = molecular target: Kappa-type opioid receptor (Homo sapiens, UniProt P41145); experiment: Late-stage fluorescence-based cell-based dose response assay for antagonists of kappa opioid receptor 1 (OPRK1).; type: functional
Mu-type opioid receptor = Mu-type opioid receptor (Homo sapiens, UniProt P35372); experiment: Late-stage results from the probe development effort to identify antagonists of OPRK1: luminescence-based cell-based dose response OPRM1 counterscreen, Set 2.; type: functional
[18] = molecular target: Delta-type opioid receptor (Homo sapiens, UniProt P41143); experiment: Late-stage results from the probe development effort to identify antagonists of OPRK1: fluorescence-based cell-based dose response OPRD1 counterscreen, Set 2.; type: functional
[19] = molecular target: Sphingosine 1-phosphate receptor 1 (Homo sapiens, UniProt P21453); experiment: Late-stage counterscreen for antagonists of kappa opioid receptor 1 (OPRK1): fluorescence-based cell-based dose response assay to identify antagonists of Sphingosine 1-Phosphate Receptor 1 (S1P1).; type: functional
[20] = activation of miR-122 Renilla sensor silencing – cell-based, Huh7 psiCHECK-miR122, Renilla luciferase, cherry-picked, dose response (AID 651956); type: functional;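 also: huh7 hepatoma cells stably carrying a psiCHECK-2 miR-122 sensor plasmid; renilla luciferase signal reporting endogenous miR-122 activity after 48 h compound exposure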
[21] = general mammalian cell viability loss – inhibitor set, cherry-pick, set 2, cytotoxicity control for miR-122 modulator project, dose response (AID 720697); type: functional, cell-based
[22] = general mammalian cell viability loss – activator set, cherry-pick, cytotoxicity control for miR-122 modulator project, dose response (AID 720690); type: functional, cell-based;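 also: HEK293T human cells scored for general mammalian cytotoxicity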

T1 sequence (Q38C91 whole entry): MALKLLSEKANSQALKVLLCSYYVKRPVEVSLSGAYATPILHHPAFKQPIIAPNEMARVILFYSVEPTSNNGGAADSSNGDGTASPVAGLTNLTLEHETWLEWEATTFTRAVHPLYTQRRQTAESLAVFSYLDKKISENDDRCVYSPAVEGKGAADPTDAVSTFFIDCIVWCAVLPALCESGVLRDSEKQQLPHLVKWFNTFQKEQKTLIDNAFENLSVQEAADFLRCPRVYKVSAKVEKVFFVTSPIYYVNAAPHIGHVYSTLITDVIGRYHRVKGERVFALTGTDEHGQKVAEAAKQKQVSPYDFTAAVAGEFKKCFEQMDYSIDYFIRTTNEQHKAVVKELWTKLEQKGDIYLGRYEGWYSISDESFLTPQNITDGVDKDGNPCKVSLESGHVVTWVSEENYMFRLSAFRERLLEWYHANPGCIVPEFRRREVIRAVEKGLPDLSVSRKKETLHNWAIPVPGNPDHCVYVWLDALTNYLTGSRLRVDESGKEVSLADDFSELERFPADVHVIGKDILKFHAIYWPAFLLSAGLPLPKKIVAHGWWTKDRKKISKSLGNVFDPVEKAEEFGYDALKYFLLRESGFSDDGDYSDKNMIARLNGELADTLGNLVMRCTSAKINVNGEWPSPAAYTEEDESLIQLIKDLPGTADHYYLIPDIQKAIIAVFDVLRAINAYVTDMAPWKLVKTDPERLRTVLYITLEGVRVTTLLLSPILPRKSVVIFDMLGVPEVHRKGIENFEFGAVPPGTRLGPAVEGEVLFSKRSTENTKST
Chain of Sphingosine 1-phosphate receptor 1 (P21453 whole entry): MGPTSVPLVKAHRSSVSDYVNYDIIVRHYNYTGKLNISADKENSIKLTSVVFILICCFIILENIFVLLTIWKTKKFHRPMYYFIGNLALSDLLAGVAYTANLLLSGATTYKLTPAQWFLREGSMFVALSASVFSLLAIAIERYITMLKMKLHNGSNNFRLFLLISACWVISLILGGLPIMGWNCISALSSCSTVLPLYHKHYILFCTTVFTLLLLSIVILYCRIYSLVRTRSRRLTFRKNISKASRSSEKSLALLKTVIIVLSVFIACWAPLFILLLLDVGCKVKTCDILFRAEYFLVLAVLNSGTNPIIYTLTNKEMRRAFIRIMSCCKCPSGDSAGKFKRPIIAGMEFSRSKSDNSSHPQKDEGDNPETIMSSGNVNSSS
Chain of Kappa-type opioid receptor (P41145 whole entry): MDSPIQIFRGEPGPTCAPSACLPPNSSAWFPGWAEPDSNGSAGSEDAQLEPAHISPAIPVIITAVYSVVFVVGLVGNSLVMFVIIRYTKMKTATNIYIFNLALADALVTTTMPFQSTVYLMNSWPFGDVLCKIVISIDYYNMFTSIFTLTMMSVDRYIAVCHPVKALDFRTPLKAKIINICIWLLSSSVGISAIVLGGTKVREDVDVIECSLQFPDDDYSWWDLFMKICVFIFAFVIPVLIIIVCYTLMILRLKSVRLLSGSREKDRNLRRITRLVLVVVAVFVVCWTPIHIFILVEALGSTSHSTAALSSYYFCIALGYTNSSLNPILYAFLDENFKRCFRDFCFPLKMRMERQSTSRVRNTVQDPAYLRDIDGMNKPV
Chain of Mu-type opioid receptor (P35372 whole entry): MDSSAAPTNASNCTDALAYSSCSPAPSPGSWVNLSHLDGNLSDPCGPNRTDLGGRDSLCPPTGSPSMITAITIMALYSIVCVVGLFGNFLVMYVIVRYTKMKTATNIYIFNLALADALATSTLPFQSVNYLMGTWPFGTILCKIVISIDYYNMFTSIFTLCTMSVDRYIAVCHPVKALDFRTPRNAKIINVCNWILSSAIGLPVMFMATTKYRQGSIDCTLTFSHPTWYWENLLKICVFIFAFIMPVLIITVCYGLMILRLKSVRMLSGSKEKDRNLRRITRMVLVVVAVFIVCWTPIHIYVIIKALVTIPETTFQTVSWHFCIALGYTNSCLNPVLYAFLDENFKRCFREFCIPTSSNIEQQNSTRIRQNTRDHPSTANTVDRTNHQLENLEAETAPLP
Chain of NAD-dependent protein deacylase sirtuin-5, mitochondrial (Q9NXA8 whole entry): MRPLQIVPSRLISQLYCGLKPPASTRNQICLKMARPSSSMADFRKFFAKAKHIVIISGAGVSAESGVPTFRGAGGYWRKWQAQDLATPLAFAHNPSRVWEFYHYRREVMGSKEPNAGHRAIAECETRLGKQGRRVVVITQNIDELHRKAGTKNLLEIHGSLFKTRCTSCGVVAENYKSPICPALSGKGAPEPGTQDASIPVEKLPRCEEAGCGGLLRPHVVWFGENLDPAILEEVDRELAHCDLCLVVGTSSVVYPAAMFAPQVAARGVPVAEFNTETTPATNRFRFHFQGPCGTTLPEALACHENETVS
Chain of Long-chain-fatty-acid--AMP ligase FadD28 (P9WQ59 whole entry): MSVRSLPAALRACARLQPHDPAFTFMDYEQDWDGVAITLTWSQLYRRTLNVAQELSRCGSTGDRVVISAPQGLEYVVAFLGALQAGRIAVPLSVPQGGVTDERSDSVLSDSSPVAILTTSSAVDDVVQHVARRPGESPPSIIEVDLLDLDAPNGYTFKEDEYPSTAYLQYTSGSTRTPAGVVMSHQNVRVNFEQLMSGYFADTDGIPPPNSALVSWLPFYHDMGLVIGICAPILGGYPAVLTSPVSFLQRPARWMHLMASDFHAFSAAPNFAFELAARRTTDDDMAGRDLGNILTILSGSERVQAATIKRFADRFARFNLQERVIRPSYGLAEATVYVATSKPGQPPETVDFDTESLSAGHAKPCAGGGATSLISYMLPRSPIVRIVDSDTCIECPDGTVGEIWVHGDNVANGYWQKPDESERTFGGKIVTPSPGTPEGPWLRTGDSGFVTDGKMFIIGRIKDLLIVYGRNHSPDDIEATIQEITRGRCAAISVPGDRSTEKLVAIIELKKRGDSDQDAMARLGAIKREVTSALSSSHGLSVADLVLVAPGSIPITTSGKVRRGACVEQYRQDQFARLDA
Chain of Delta-type opioid receptor (P41143 whole entry): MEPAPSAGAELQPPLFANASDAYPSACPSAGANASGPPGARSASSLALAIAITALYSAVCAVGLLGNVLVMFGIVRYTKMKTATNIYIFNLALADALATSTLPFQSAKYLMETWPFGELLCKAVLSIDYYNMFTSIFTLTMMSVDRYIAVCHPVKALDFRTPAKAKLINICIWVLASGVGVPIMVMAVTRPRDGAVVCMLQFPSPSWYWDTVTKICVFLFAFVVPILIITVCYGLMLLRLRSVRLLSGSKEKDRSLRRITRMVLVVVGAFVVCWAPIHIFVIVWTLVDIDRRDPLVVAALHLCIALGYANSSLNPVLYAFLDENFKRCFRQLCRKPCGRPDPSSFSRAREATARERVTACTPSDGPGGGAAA

Fc1ccc(-c2nnc(SCc3cn(Cc4ccccc4)nn3)o2)cc1
IC90 [1]: 1 µM (active) | IC90 [2]: 1 µM (active)

Cc1ccc2c(CN3CCN(S(=O)(=O)c4ccc5c(c4)OCCO5)CC3)cc(=O)oc2c1C
AC50 [3]: 4.58 µM (active) | AC50 [4]: 0.424 µM (active) | AC50 [5]: > 70 µM (inactive) | AC50 [6]: 4.06 µM (active) | AC50 [7]: 3.95 µM (active) and 5.68 µM (active) and 3.52 µM (active) | AC50 [8]: > 70 µM (inactive)

CCCCC(=O)Nc1ccc2c(c1)nc(CCNC(=O)c1ccco1)n2C
AC50 [9]: > 30 µM (inactive)

Nc1ccc(NC(=O)c2ccccc2)c2c1C(=O)c1ccccc1C2=O
IC50 [10]: 19.5 µM (active)

O=C(Nc1nnc(-c2ccc(Cl)cc2)o1)C1CCCCC1
AC50 [11]: > 160 µM (inactive)

Cn1cc(S(=O)(=O)N2CCOCC2)cc1C(=O)NCc1ccc(Cl)cc1
IC50 [12]: 29.8 µM (inactive) | IC50 [13]: 83.3 µM (inactive) | IC50 [14]: 11.2 µM (inactive)

COc1ccc(OC)c(C2=NOC(C(=O)Nc3cccc(C(C)=O)c3)C2)c1 (stereo not given)
AC50 [15]: 34.6 µM (active)

COC(=O)N1C(=O)[C@](c2ccc(Cl)cc2)(C(C)C)N1C(=O)OC
AC50 [16]: 18.7 µM (active)

COc1cc(NC(=O)c2nccn2C)cc(C(=O)Nc2cccc(C(F)(F)F)c2)c1
AC50 (BHK-21): 26.2 µM (active) | AC50 (A549): 19.7 µM (active)

COc1ccccc1C1CCN(Cc2ccc3c(c2)CCC(C)(C)O3)CC1
IC50 [17]: 4.66 µM (active) | IC50 (Mu-type opioid receptor): 7.4 µM (active) | IC50 [18]: > 50 µM (inactive) | IC50 [19]: > 50 µM (inactive)

C[C@H](CO)N1C[C@H](C)[C@H](CN(C)Cc2ccc(C(F)(F)F)cc2)OCCCC[C@H](C)Oc2ccc(NC(=O)CCCN(C)C)cc2C1=O
AC50 [20]: 10.3 µM (active) | AC50 [21]: 17.9 µM (active) | AC50 [22]: 15.7 µM (active)

— ChEMBL document CHEMBL1201862, “PubChem BioAssay data set” (2004)
